Ki data for 13 molecules are collected here from patent US6875761B2 (Eisai Co., Ltd., priority 1997, dated 2005).

The target in one test is T1, serotonin 2 receptor (Rattus norvegicus, UniProt P14842).
T1 construct: To the receptor fraction of the cerebral cortex were added a test compound and 0.3 nM of [^3H] ketanserin; from tissue; host or cells: rat cerebral cortex membrane fraction
The experiment in a line: Binding test on [3H] ketanserin, cerebral cortex receptor fraction. Further details: species or system SD rats. The settings on record: 0.3 nM [3H] ketanserin, 37° C. 15 min, read-out: 5HT2.

In a further test the target is T2, serotonin 1A receptor (Rattus norvegicus, UniProt P19327).
T2 construct: To the receptor fraction of the hippocampus were added a test compound and 0.5 nM of [^3H]; 8-hydroxy-dipropylaminotetralin; from tissue; host or cells: rat hippocampus membrane fraction
T2 sequence (P19327 1-422): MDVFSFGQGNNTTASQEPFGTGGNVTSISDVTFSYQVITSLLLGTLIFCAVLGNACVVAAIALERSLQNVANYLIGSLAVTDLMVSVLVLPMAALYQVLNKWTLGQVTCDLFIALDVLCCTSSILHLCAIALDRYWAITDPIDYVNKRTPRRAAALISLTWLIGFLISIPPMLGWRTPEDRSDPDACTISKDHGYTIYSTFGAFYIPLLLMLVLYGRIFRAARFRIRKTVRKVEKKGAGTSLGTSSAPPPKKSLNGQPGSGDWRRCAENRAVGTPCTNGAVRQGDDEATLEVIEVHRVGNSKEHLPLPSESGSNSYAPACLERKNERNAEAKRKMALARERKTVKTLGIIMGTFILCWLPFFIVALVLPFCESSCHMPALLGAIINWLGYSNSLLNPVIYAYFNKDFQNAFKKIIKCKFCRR
The experiment in a line: Binding test on [3H] 8-hydroxy-dipropylaminotetralin, hippocampus receptor fraction. More on the design: species or system SD rats. The settings on record: rat hippocampus receptor fraction, 0.5 nM [3H] 8-OH-DPAT, room temperature 30 min; read-out: 5HT1.

Where a name gives a salt, the structure may show the parent alone.

T1 sequence (P14842 whole entry): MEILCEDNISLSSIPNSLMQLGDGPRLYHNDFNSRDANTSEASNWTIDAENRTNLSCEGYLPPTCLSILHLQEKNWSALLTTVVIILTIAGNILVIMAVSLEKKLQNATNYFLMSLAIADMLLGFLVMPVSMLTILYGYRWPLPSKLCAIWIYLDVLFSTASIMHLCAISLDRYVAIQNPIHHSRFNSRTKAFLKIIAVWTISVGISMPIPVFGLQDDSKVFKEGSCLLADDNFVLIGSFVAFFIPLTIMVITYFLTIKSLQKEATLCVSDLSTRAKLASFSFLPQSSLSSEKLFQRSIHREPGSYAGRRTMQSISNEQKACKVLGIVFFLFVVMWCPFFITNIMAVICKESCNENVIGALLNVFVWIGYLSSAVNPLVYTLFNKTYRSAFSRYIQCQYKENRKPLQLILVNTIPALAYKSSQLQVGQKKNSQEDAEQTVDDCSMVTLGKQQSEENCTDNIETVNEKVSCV

For the molecule `CCN1CCN(c2nc(-c3ccc4c(c3)OCCO4)cc3ccccc23)CC1` [Example 332, 1-(4-ethylpiperazin-1-yl)-3-(3,4-ethylenedioxyphenyl)isoquinoline dihydrochloride], the Ki at serotonin 2 receptor is 12.1 nM; on serotonin 1A receptor, 13.9 nM.

In the case of `CCC(=O)Nc1ccc(-c2cc3ccccc3c(N3CCN(CC)CC3)n2)cc1` [Example 69, 3-(4-Ethylcarbonylaminophenyl)-1-(4-Ethylpiperazin-1-Yl)Isoquinoline Hydrochloride], the Ki on serotonin 2 receptor came to 17.3 nM; at serotonin 1A receptor it was 17.2 nM.

As to `CCN1CCN(c2nc(-c3cccc(OCCO)c3)cc3sccc23)CC1` [Example 284, 4-(1-ethylpiperazin-4-yl)-6-[3-(2-hydroxyethoxy)phenyl]thieno-[3,2-c]pyridine dihydrochloride], the Ki at serotonin 2 receptor came out at 75.9 nM; at serotonin 1A receptor it was 91.9 nM.

`CCN1CCN(c2nc(-c3ccc(OCCOC)c(F)c3)cc3ccccc23)CC1` [Example 367, 1-(4-ethylpiperazin-1-yl)-3-(3-fluoro-4-methoxyethoxyphenyl)isoquinoline dihydrochloride]: the Ki at serotonin 2 receptor was 3.3 nM; at serotonin 1A receptor it was 55.2 nM.

For `CCN1CCN(c2nc(-c3cc(F)c(OCCO)c(F)c3)cc3ccccc23)CC1` [Example 370, 1-(4-ethylpiperazin-1-yl)-3-[3,5-difluoro-4-(2-hydroxyethoxy)phenyl]isoquinoline], the values for the Ki at serotonin 2 receptor and on serotonin 1A receptor were 3.4 nM and 23.9 nM, respectively.

For `CCN1CCN(c2nc(-c3ccc(OCCCc4ccncc4)cc3)cc3ccccc23)CC1` [Example 57, 3-{4-[3-(4-Pyridyl)Propoxy]Phenyl}-1-(4-Ethylpiperazin-1-Yl)Isoquinoline Hydrochloride], the Ki on serotonin 2 receptor was 4.6 nM; at serotonin 1A receptor, 57.2 nM.

On to `CCN1CCN(c2nc(-c3ccc(N4CCN(C(C)=O)CC4)nc3)cc3ccccc23)CC1` [Example 99, 3-[2-(4-Acetylpiperazin-1-yl)pyridin-5-yl]-1-(4-ethylpiperazin-1-yl)isoquinoline Trihydrochloride], for which the Ki at serotonin 2 receptor is 6.2 nM; at serotonin 1A receptor it was 3.5 nM.

Consider `CCN1CCN(c2nc(-c3ccc(OCC(C)O)cc3)cc3sccc23)CC1` (centres unmarked) [Example 287, 4-(4-ethylpiperazin-1-yl)-6-[4-(2-hydroxypropoxy)phenyl]thieno[3,2-c]pyridine], for which the Ki was 0.87 nM on serotonin 2 receptor and 27.9 nM on serotonin 1A receptor.

For `CCN1CCN(c2nc(-c3ccc(S(=O)(=O)NC4CC4)cc3)cc3ccccc23)CC1` [Example 363, 1-(4-ethylpiperazin-1-yl)-3-[4-(N-cyclopropylsulfamoyl)phenyl]isoquinoline dihydrochloride], the values for the Ki on serotonin 2 receptor and at serotonin 1A receptor were 0.61 nM and 3.5 nM, respectively.

`CCN1CCN(c2nc(/C=C/c3ccccc3OCCO)cc3ccccc23)CC1` [Example 194, 1-(1-Ethylpiperazin-4-Yl)-3-[trans-2-(2-Hydroxyethoxyphenyl)Ethenyl]Isoquinoline Oxalate]: the Ki on serotonin 2 receptor came to 33.7 nM; on serotonin 1A receptor, 11.2 nM.

With `CCN1CCN(c2nc(-c3ccc(OCCCC#N)cc3)cc3ccccc23)CC1` [Example 53, 3-[4-(3-Cyanopropoxy)Phenyl]-1-(4-Ethylpiperazin-1-Yl)Isoquinoline Hydrochloride], the Ki at serotonin 2 receptor was determined as 1.78 nM; on serotonin 1A receptor, 61.2 nM.

`CCN1CCN(c2nc(-c3ccc(CCC(C)O)nc3)cc3ccccc23)CC1` (centres unmarked) [Example 136, 1-(1-Ethylpiperazin-4-yl)-3-[2-(3-Hydroxybutyl)Pyridin-5-yl]Isoquinoline]: the Ki on serotonin 2 receptor amounted to 11.6 nM; at serotonin 1A receptor, 3.7 nM.

As for `CCN1CCN(c2nc(-c3ccc([C@H]4CC[C@@H](O)CC4)cc3)cc3ccccc23)CC1` [Example 397, 1-(4-Ethylpiperazin-1-yl)-3-[4-(cis-4-Hydroxycyclohexyl)Phenyl]Isoquinoline Dihydrochloride], the values for the Ki at serotonin 2 receptor and at serotonin 1A receptor were 0.9 nM and 53.3 nM, respectively.
